# In patent US20090181948A1, “DIAMINE DERIVATIVE” (KYOWA HAKKO KOGYO CO., LTD., priority 2005, published 2009):
# Target: T1, histamine H3 receptor (Rattus norvegicus, UniProt Q9QYN8)
# T1 construct: from tissue; host or cells: rat striatum (Sprague-Dawley, male, 6 weeks), membrane homogenate
# Assay: Histamine H3 receptor binding assay ([3H]-Nα-methylhistamine binding to rat striatum homogenate)
# Details: 1 μmol/L test compound; [3H]-Nα-methylhistamine 1 nmol/L; striata of Sprague-Dawley male rats, 25° C., 1 hour; read-out: Inhibition ratio of [3H]-Nα-methylhistamine binding
# Protocol: To the striata of Sprague-Dawley male rats (6 weeks of age), a 10-fold volume of lysis buffer {50 mmol/L [[…] (Tris)]/HCl (pH 7.4), 5 mmol/L ethylenediaminetetraacetic acid (EDTA), a protease inhibitor mixture [1 mg/mL phenylmethylsulfonyl fluoride (PMSF), 1 μg/mL pepstatin A, 1 μg/mL leupeptin, 1 μg/mL chymostatin]} was added and the striata were homogenized. The resulting homogenate was centrifuged (30,000×g, 4° C., 30 min), and the obtained precipitate was resuspended in a 10-fold volume of lysis buffer, followed by centrifugation under the same condition. To the obtained precipitate, a 3-fold volume of lysis buffer was added to suspend the precipitate, and the resulting tissue homogenate was used for a test.
# A test compound was dissolved in an assay buffer [50 mmol/L Tris/HCl (pH 7.4), 5 mmol/L EDTA], and [^3H]-N^α-methylhistamine (1 nmol/L) and the tissue homogenate (20 μg, in terms of protein amount) were added thereto, and then, the mixture was incubated at 25° C. for 1 hour. Then, the reaction was terminated by rapid suction filtration on a glass filter [GF/B: Whatman, previously soaked in 0.3 w/v % polyethylenimine for about 30 min]. Then, the glass filter was washed three times with 3 mL of assay buffer. This glass filter was transferred into a scintillation vial and dried at 60° C. for 30 minutes. Then, 0.5 mL of Ultimagold (Perkin Elmer) was added thereto, and the radioactivity (binding amount of [^3H]-N^α-methylhistamine) was measured using a liquid scintillation counter. The obtained value was used as a binding amount in the presence of the test compound. The same procedure as described above was carried out in the absence of the test compound, and the binding amount of [^3H]-N^α-methylhistamine obtained at this time was used as a binding amount in the absence of the test compound. Further, the binding amount of [^3H]-N^α-methylhistamine obtained in the presence of 10 μmol/L thioperamide was used as a non-specific binding amount. An inhibitory action of [^3H]-N^α-methylhistamine binding was represented by an inhibition ratio in terms of 1 μmol/L of the test compound calculated by the following Equation (1).
# Inhibition ratio(%)={1−[(Binding amount in the presence of test compound)−(Non-specific binding amount)]/[(Binding amount in the absence of test compound)−(Non-specific binding amount)]}×100 (1)
# T1 sequence (Q9QYN8 whole entry): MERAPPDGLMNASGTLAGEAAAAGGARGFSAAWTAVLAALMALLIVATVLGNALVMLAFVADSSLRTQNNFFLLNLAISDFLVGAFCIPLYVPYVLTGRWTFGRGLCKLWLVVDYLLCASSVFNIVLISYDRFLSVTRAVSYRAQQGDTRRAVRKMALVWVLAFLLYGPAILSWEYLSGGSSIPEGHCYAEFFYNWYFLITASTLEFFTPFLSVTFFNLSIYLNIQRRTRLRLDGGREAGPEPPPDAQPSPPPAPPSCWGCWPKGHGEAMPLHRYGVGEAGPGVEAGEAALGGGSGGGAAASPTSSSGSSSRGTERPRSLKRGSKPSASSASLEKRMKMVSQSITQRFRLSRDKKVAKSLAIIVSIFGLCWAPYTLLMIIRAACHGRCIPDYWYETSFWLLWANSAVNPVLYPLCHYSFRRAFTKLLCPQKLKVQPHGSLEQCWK
row,Compound,inhibition at 1 µM
1,"N#CC(C#N)=C1N(CCCN2CC=CCC2)CCN1CCCN1CC=CCC1 [Compound 88, {1,3-bis[3-(1,2,3,6-Tetrahydropyridin-1-yl)propyl]imidazolidin-2-ylidene}malononitrile]",≥ 80%
2,"CN1CCN(CCCN2CCN(CCCN3CCCCC3)C2=C(C#N)C#N)CC1 [Compound 76, {1-[3-(4-Methylpiperazin-1-yl)propyl]-3-(3-piperidinopropyl)imidazolidin-2-ylidene}malononitrile]",≥ 80%
3,"CC1CCCN1CCCN1CCN(CCN2C[C@H](C)C[C@H](C)C2)C1=C(C#N)C#N (relative stereo) [Compound 20, {1-[2-(Cis-3,5-dimethylpiperidino)ethyl]-3-[3-(2-methylpyrrolidin-1-yl)propyl]imidazolidin-2-ylidene}malononitrile]",≥ 80%
4,"N#CC(C#N)=C1N(CCCN2CC=CCC2)CCN1CCCN1CCCCC1 [Compound 90, {1-[3-(1,2,3,6-Tetrahydropyridin-1-yl)propyl]-3-(3-piperidinopropyl)imidazolidin-2-ylidene}malononitrile]",≥ 80%
5,"CC1CCCN1CCCN1CCN(CCCN2CCN(C)CC2)C1=C(C#N)C#N (centres unmarked) [Compound 78, {1-[3-(4-Methylpiperazin-1-yl)propyl]-3-[3-(2-methylpyrrolidin-1-yl)propyl]imidazolidin-2-ylidene}malononitrile]",≥ 80%
6,"N#CC(C#N)=C1N(CCCCN2CCCCC2)CCN1CCCCN1CCCCC1 [Compound 9, [1,3-Bis(4-piperidinobutyl)imidazolidin-2-ylidene]malononitrile]",≥ 80%
7,"N#CC(C#N)=C1N(CCCCN2CCCCC2)CCN1CCCN1CCCCC1 [Compound 8, [1-(4-Piperidinobutyl)-3-(3-piperidinopropyl)imidazolidin-2-ylidene]malononitrile]",≥ 80%
8,"CC1CC(C)CN(CCCN2CCN(CCCN3CC=CCC3)C2=C(C#N)C#N)C1 (centres unmarked) [Compound 91, {1-[3-(1,2,3,6-Tetrahydropyridin-1-yl)propyl]-3-[3-(3,5-dimethylpiperidino)propyl]imidazolidin-2-ylidene}malononitrile]",≥ 80%
9,"N#CC(C#N)=C1N(CCN2CCCCC2)CCN1CCN1CCCCC1 [Compound 5, [1,3-Bis(2-piperidinoethyl)imidazolidin-2-ylidene]malononitrile]",≥ 80%
10,"CC1CCCCN1CCCN1CCN(CCCN2CCCCC2)C1=C(C#N)C#N (centres unmarked) [Compound 98, {1-[3-(2-Methylpiperidino)propyl]-3-(3-piperidinopropyl)imidazolidin-2-ylidene}malononitrile]",≥ 80%
11,"N#CC(C#N)=C1N(CCCN2CC=CCC2)CCN1CCCN1CCCC1 [Compound 89, {1-[3-(1,2,3,6-Tetrahydropyridin-1-yl)propyl]-3-[3-(pyrrolidin-1-yl)propyl]imidazolidin-2-ylidene}malononitrile]",≥ 80%
12,"CC1CCCN(CCCN2CCN(CCCN3CC=CCC3)C2=C(C#N)C#N)C1 (centres unmarked) [Compound 87, {1-[3-(1,2,3,6-Tetrahydropyridin-1-yl)propyl]-3-[3-(3-methylpiperidino)propyl]imidazolidin-2-ylidene}malononitrile]",≥ 80%
13,"CCN(CC)CCCN1CCN(CCN2CCCCC2)C1=C(C#N)C#N [Compound 48, [1-(3-Diethylaminopropyl)-3-(2-piperidinoethyl)imidazolidin-2-ylidene]malononitrile]",≥ 80%
14,"N#CC(C#N)=C1N(CCCN2CC=CCC2)CCN1CCCN1CCCCCC1 [Compound 68, {1-[3-(Azepan-1-yl)propyl]-3-[3-(1,2,3,6-tetrahydropyridin-1-yl)propyl]imidazolidin-2-ylidene}malononitrile]",≥ 80%
15,"N#CC(C#N)=C1N(CCCN2CCCCC2)CCN1CCCN1CCCC1 [Compound 95, {1-(3-Piperidinopropyl)-3-[3-(pyrrolidin-1-yl)propyl]imidazolidin-2-ylidene}malononitrile]",≥ 80%
16,"N#CC(C#N)=C1N(CCCN2CCCC2)CCN1CCCN1CCOCC1 [Compound 82, {1-(3-Morpholinopropyl)-3-[3-(pyrrolidin-1-yl)propyl]imidazolidin-2-ylidene}malononitrile]",≥ 80%
17,"N#CC(C#N)=C1N(CCCNC2CCCCC2)CCN1CCN1CCCCC1 [Compound 62, [1-(3-Cyclohexylaminopropyl)-3-(2-piperidinoethyl)imidazolidin-2-ylidene]malononitrile]",≥ 80%

# Continued, values first:
row,inhibition at 1 µM,Compound
1,≥ 80%,"C[C@H]1CCCN1CCCN1C(=C(C#N)C#N)N(CCCN2CCC[C@@H]2C)c2ccccc21 [Compound 125, {1,3-Bis[3-((S)-2-methylpyrrolidin-1-yl)propyl]benzimidazolidin-2-ylidene}malononitrile]"
2,≥ 80%,"CC(C)N1CCC(N2CCN(CCCN3CCCC3C)C2=C(C#N)C#N)CC1 (centres unmarked) [Compound 219, {1-(1-Isopropylpiperidin-4-yl)-3-[3-(2-methylpyrrolidin-1-yl)propyl]imidazolidin-2-ylidene}malononitrile]"
3,≥ 80%,"CC1CC(C)CN(CCCN2CCN(CCCN3C(C)CCCC3C)C2=C(C#N)C#N)C1 (centres unmarked) [Compound 108, {1-[3-(2,6-Dimethylpiperidino)propyl]-3-[3-(3,5-dimethylpiperidino)propyl]imidazolidin-2-ylidene}malononitrile]"
4,≥ 80%,"CC1CC(C)CN(CCCN2CCN(CCCN3CC(C)CC(C)C3)C2=C(C#N)C#N)C1 (centres unmarked) [Compound 109, {1,3-Bis[3-(3,5-dimethylpiperidino)propyl]imidazolidin-2-ylidene}malononitrile]"
5,≥ 80%,"CC1CCN(CCCN2CCN(CCCN3CC(C)CC(C)C3)C2=C(C#N)C#N)CC1 (centres unmarked) [Compound 106, {1-[3-(3,5-Dimethylpiperidino)propyl]-3-[3-(4-methylpiperidino)propyl]imidazolidin-2-ylidene}malononitrile]"
6,≥ 80%,"CC1CCCN1CCCN1CCN(C2CCN(Cc3ccccc3)CC2)C1=C(C#N)C#N (centres unmarked) [Compound 127, {1-(1-Benzylpiperidin-4-yl)-3-[3-(2-methylpyrrolidin-1-yl)propyl]imidazolidin-2-ylidene}malononitrile]"
7,≥ 80%,"N#CC(C#N)=C1N(CCCN2CCOCC2)CCN1C1CCN(CCF)CC1 [Compound 222, {1-[1-(2-Fluoroethyl)piperidin-4-yl]-3-(3-morpholinopropyl)imidazolidin-2-ylidene}malononitrile]"
8,≥ 80%,"N#CC(C#N)=C1N(CCCN2CCCCC2)CCN1C1CCN(CC2CC2)CC1 [Compound 229, [1-(1-Cyclopropylmethylpiperidin-4-yl)-3-(3-piperidinopropyl)imidazolidin-2-ylidene]malononitrile]"
9,≥ 80%,"CC1CCCN1CCCN1CCCN(CCCN2CCCC2C)C1=C(C#N)C#N (centres unmarked) [Compound 123, {1,3-Bis[3-(2-methylpyrrolidin-1-yl)propyl]hexahydropyrimidin-2-ylidene}malononitrile]"
10,≥ 80%,"C=CCN1CCC(N2CCN(CCCN3CCCCC3)C2=C(C#N)C#N)CC1 [Compound 227, [1-(1-Allylpiperidin-4-yl)-3-(3-piperidinopropyl)imidazolidin-2-ylidene]malononitrile]"
11,≥ 80%,"CC1CCCN1CCCN1CCN(CCCN2CCC(=O)CC2)C1=C(C#N)C#N (centres unmarked) [Compound 203, {1-[3-(2-Methylpyrrolidin-1-yl)propyl]-3-[3-(4-oxopiperidino)propyl]imidazolidin-2-ylidene}malononitrile]"
12,≥ 80%,"CC(C)N1CCC(CN2CCN(CC3CCN(C(C)C)CC3)C2=C(C#N)C#N)CC1 [Compound 134, [1,3-Bis(1-isopropylpiperidin-4-ylmethyl)imidazolidin-2-ylidene]malononitrile]"
13,≥ 80%,"CC1CCCN1CCCN1CCN(CCCN2CCC(O)C2)C1=C(C#N)C#N (centres unmarked) [Compound 114, {1-[3-(3-Hydroxypyrrolidin-1-yl)propyl]-3-[3-(2-methylpyrrolidin-1-yl)propyl]imidazolidin-2-ylidene}malononitrile]"
14,≥ 80%,"CC(C)N1CCC(N2CCN(CCN3CCC[C@@H]3C)C2=C(C#N)C#N)CC1 [Compound 210, {1-(1-Isopropylpiperidin-4-yl)-3-[2-((S)-2-methylpyrrolidin-1-yl)ethyl]imidazolidin-2-ylidene}malononitrile]"

# Same assay, conditions: rat striatum homogenate; read-out: dissociation constant Kd of [3H]-Nα-methylhistamine binding to the rat H3 receptor
row,Compound,Kd
1,"CNCCc1cnc[nH]1 [[^3H]-N^α-methylhistamine, reference compound]",0.57 ± 0.04 nM
